Test [1] has as its target T1, GFP-tagged CDKN2AIP (Homo sapiens, UniProt Q9NXV6).
T1 construct: GFP-tagged human CDKN2AIP expressed in HEK293 cells, cell lysate
T1 sequence (Q9NXV6 2-580): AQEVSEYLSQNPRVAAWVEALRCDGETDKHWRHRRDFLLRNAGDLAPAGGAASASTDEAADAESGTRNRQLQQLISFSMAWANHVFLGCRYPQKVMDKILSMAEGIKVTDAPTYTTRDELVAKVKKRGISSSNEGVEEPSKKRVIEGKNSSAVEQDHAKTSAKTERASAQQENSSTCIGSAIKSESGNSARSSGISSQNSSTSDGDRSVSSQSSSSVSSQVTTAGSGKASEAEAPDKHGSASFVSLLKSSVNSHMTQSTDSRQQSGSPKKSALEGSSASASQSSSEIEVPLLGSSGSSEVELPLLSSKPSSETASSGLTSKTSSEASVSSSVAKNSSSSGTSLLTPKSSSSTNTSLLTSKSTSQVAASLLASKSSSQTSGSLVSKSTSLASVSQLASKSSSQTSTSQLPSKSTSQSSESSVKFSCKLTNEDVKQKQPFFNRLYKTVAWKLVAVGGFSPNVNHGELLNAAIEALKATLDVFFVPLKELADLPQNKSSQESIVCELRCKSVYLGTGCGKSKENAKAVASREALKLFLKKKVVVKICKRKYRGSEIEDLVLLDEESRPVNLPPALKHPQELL
Put plainly: DARTS (proteinase K protection, immunoblot). Format: biochemical. Particulars: HEK293 cell lysate, GFP-tagged wild type.

Test [2] deals with T2, SLC6A6 (Mus musculus, UniProt O35316).
T2 construct: endogenous protein in MIN6 cell lysate
T2 sequence (O35316 1-621): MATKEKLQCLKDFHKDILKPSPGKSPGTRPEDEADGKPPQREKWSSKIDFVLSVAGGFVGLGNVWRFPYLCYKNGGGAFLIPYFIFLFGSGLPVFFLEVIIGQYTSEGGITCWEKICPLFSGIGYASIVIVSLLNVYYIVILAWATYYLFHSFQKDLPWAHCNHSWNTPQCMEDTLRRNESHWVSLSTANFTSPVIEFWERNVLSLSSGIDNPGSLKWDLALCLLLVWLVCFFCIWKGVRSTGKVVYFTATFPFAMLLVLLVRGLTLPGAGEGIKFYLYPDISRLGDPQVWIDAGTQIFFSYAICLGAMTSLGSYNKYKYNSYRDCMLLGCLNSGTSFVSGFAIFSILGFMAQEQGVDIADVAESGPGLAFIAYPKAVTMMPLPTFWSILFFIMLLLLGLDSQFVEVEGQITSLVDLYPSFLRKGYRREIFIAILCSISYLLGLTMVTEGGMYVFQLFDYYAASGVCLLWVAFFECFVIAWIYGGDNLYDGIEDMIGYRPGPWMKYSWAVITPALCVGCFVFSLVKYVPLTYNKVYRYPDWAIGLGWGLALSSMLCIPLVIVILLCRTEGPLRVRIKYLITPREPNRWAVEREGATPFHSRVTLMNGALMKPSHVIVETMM
Kind of test: DARTS (proteinase K protection, immunoblot). It is filed as biochemical. The settings on record: MIN6 cell lysate, taurine 0-200 uM, pH 7.5, 1 h on ice; positive control.

Test [3] concerns the target T3, SLC6A6 (Rattus norvegicus, UniProt P31643).
T3 construct: endogenous protein in INS-1E cell lysate
T3 sequence (P31643 1-621): T2 sequence (O35316 1-621) with H151Q, T188A, N212H, D281N, G286E, L435V, V521I, L555V, V602A
Put plainly: DARTS (proteinase K protection, immunoblot). Particulars: INS-1E cell lysate, taurine 0-200 uM, pH 7.5, 1 h on ice; positive control. It is filed as biochemical. A general note: A western blot detects proteins with antibodies after separation by electrophoresis.

Test [4] has as its target T4, CDKN2AIP recombinant protein (Homo sapiens, UniProt Q9NXV6).
T4 construct: recombinant human CDKN2AIP
T4 sequence (Q9NXV6 2-580): T1 sequence (Q9NXV6 2-580)
Put plainly: DARTS (proteinase K protection of recombinant protein). Format: binding.

In test [5] the target is T5, GFP-tagged CDKN2AIP (Homo sapiens, UniProt Q9NXV6, P484A/L485A/K486A).
T5 construct: GFP-tagged human CDKN2AIP expressed in HEK293 cells, cell lysate
T5 sequence (Q9NXV6 2-580 P484A/L485A/K486A): T1 sequence (Q9NXV6 2-580) with P483A, L484A, K485A
Kind of test: DARTS (proteinase K protection, immunoblot). Format: biochemical. The settings on record: HEK293 cell lysate, GFP-tagged triple mutant.

In test [6] the target is T6, CDKN2AIP (Mus musculus, UniProt Q8BI72).
T6 construct: endogenous protein in MIN6 cell lysate
T6 sequence (Q8BI72 2-563): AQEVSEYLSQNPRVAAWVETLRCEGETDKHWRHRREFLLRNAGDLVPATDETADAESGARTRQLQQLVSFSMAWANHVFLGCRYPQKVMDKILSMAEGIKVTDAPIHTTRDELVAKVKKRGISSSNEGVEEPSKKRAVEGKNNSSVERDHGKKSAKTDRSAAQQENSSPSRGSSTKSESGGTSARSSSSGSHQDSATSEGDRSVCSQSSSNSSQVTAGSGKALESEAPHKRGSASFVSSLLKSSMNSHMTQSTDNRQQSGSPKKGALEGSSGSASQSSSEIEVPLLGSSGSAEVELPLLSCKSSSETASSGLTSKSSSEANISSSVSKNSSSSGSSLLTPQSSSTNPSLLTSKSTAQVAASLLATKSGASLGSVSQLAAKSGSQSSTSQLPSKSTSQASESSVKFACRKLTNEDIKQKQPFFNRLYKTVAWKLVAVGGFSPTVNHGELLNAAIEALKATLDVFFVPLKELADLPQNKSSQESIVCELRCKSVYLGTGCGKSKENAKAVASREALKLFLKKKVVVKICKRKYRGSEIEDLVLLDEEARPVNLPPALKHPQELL
Kind of test: DARTS (proteinase K protection, immunoblot). The settings on record: MIN6 cell lysate, taurine 0-200 uM, pH 7.5, 1 h on ice. Format: biochemical.

Test [7] deals with T7, CDKN2AIP (Rattus norvegicus, UniProt Q5U2X0).
T7 construct: endogenous protein in INS-1E cell lysate
T7 sequence (Q5U2X0 2-570): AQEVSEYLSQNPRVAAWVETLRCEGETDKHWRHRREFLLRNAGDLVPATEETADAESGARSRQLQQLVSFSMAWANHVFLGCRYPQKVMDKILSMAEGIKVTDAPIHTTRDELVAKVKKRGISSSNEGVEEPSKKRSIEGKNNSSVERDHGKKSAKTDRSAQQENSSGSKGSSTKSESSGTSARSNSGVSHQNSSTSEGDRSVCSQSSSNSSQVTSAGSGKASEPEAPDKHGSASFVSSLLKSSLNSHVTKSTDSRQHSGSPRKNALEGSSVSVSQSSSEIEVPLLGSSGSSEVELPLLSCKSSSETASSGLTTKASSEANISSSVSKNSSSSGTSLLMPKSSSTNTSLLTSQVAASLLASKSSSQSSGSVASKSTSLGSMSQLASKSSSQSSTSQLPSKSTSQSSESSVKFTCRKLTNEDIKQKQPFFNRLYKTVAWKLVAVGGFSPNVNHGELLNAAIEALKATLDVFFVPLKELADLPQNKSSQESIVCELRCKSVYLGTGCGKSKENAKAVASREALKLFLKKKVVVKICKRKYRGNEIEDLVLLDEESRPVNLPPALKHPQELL
Put plainly: DARTS (proteinase K protection, immunoblot). It is filed as biochemical. Particulars: INS-1E cell lysate, taurine 0-200 uM, pH 7.5, 1 h on ice.

Residue numbers refer to the chain shown, from its start.

For the molecule `NCCS(=O)(=O)O` [taurine, 2‐aminoethanesulfonic acid], the “DARTS (proteinase K protection, immunoblot)” value on GFP-tagged CDKN2AIP [1] is “DARTS experiments demonstrated that taurine bound to wild‐type CDKN2AIP”; on SLC6A6 [2], “taurine dose‐dependently prevented protease K‐induced degradation of CDKN2AIP and SLC6A6”; at SLC6A6 [3], “taurine dose‐dependently prevented protease K‐induced degradation of CDKN2AIP and SLC6A6”; at GFP-tagged CDKN2AIP [5] it was “taurine bound to wild‐type CDKN2AIP but not the CDKN2AIP‐triple mutant”; at CDKN2AIP [6], “taurine dose‐dependently prevented protease K‐induced degradation of CDKN2AIP and SLC6A6”; at CDKN2AIP [7] it was “taurine dose‐dependently prevented protease K‐induced degradation of CDKN2AIP and SLC6A6”. In addition, in test [4], the “DARTS (proteinase K protection of recombinant protein)” value was “Taurine also prevented proteinase K‐induced degradation of the CDKN2AIP recombinant protein”.
